IC50 data for one compound are collected here from BindingDB's records for doi:10.1016/j.bmcl.2015.09.044 (Keio University, 2015).

Usually IC50 stands for the concentration that inhibits the measured activity by half.

Residues, ends and D or L forms follow the SMILES beside them.

The assay in a line: Inhibition of M-CSF/sRANKL-induced mouse BMDM differentiation into osteoclast after 72 hrs by TRAP staining-based microscopic analysis.

For the compound `C#CCCC/C=C(\C)C(=O)N(C)[C@H](C(=O)N(C)[C@H](C(=O)N(C)[C@H](C(=O)N(C)[C@H](C(=O)N1CCC[C@H]1C(=O)N1CCC[C@H]1C(=O)CC)C(C)C)C(C)C)[C@@H](C)CC)[C@@H](C)CC` (HELM PEPTIDE1{[C#CCCC/C=C(\C)C(=O)[*:2]].[meI].[meI].[meV].[meV].P.[CCC(=O)[C@@H]1CCCN1[*:1]]}$$$$V2.0), the IC50 was 780 nM. This lies in the sub-micromolar range.
